According to patent US20180049995A1, “HIF-2-ALPHA INHIBITOR POLYMORPHS” (PELOTON THERAPEUTICS, INC., priority 2015, published 2018):
In brackets after ≈: the same amount, converted by molar mass. Read-outs that look alike come from different tables or passages of the source. Values belong to the molecule of their own block, whether it stands above or below them.

Legend:
Type in all cases: physicochemical
[1] = Competitive slurries of Form A and Form B (XRPD)
Experimental: Slurry experiments were performed at ambient, 40° C. and 60° C. temperatures using 2-propanol, tert-butyl methyl ether, toluene and ethanol as solvents.
(§1) Saturated solutions of 2-propanol, tert-butylmethyl ether, toluene and ethanol were prepared at ambient temperature. ca. 25 mg of Form A and Form B were weighed into a vial to create 50 mg 50:50 wt/wt mixture of the two batches. The appropriate solvent was added to the mixture and the resulting slurry was stirred for 48 h at ambient temperature, before the solid was analyzed by XRPD.
as §1, with “40° C.” for “ambient temperature.”, “40° C.,” for “ambient temperature,”
as §1, with “2-propanol,” for “2-propanol, tert-butylmethyl ether,”, “60° C.” for “ambient temperature.”, “60° C.,” for “ambient temperature,”

[2] = 7-Day stability study (XRPD and HPLC after storage)
Experimental: The stability of Forms A and B were measured following storage for 7-days at ambient, 40° C./75% RH and 80° C. About 15 mg of Forms A and B were individually placed in each of 3 vials and stored uncapped for 7 days under the following conditions; ambient, 40° C./75% RH, 80° C. Following the 7 days, XRPD analysis was performed on each sample to determine its form and crystallinity and HPLC analysis was conducted to determine the sample purity.

[3] = Aqueous solubility (24 h mixing, filtrate by HPLC); conditions: thermodynamic from solid
Experimental: The aqueous solubility of several lots of Forms A and B were measured. […] The sample was filtered using a syringe filter and the filtrate was analyzed by HPLC to determine the solubility. The remaining solid was analysis by XRPD to determine its form and crystallinity. Solubility data for micronized materials was also collected. As noted in Table 3, slight variations in aqueous solubility were noted, particularly for the micronized samples.

[4] = Solubility screen for Form A in organic solvents
Experimental: A solubility screen for Form A was conducted in 24 solvents. About 5 mg of Form A was placed in each of 24 vials and 5 volume aliquots of the appropriate solvent systems listed in Table 1 were added to the appropriate vial. Between each addition, the mixture was checked for dissolution by visual inspection, and if no dissolution was apparent, the mixture was heated to ca. 40° C. and checked again. This procedure was continued until dissolution was observed or until 100 volumes of solvent had been added.
Form A appeared to be highly soluble (above ˜100 mg/mL) in a number of solvents, […] diisopropyl ether, heptane and toluene. These solvents were identified as possible anti-solvents for the primary polymorph screen. Additional solvent/water mixtures suitable for freeze drying were tested.

Form by XRPD after competitive slurry ([1]; 2-Propanol, 40° C., 48 h): Form B | Form by XRPD after competitive slurry ([1]; 2-Propanol, 60° C., 48 h, footnote: Primarily Form B): Mixture^a | Form by XRPD after competitive slurry ([1]; 2-Propanol, Ambient, 48 h): Form B | Form by XRPD after competitive slurry ([1]; Ethanol, 40° C., 48 h): Form B | Form by XRPD after competitive slurry ([1]; Ethanol, 60° C., 48 h, footnote: primarily Form A with some Form B present): Mixture^b | Form by XRPD after competitive slurry ([1]; Ethanol, Ambient, 48 h): Form B | Form by XRPD after competitive slurry ([1]; Ethanol, Repeat 60° C., only Form B observed): Form B^b | Form by XRPD after competitive slurry ([1]; TBME, 40° C., 48 h): Form B | Form by XRPD after competitive slurry ([1]; TBME, Ambient, 48 h): Form B | Form by XRPD after competitive slurry ([1]; Toluene, 40° C., 48 h): Form B | Form by XRPD after competitive slurry ([1]; Toluene, 60° C., 48 h): Form B | Form by XRPD after competitive slurry ([1]; Toluene, Ambient, 48 h): Form B
SMILES: CS(=O)(=O)c1ccc(Oc2cc(F)cc(C#N)c2)c2c1[C@H](O)C(F)(F)C2 (mixture of isomers) [50:50 wt/wt mixture, (S)-3-((2,2-difluoro-1-hydroxy-7-(methylsulfonyl)-2,3-dihydro-1H-inden-4-yl)oxy)-5-fluorobenzonitrile]

Crystallinity after storage ([2]; 7 days at 80° C.): appeared to lose crystallinity | Form change by XRPD after storage ([2]; 7 days uncapped, ambient, 40° C./75% RH, 80° C.): no signs of form change | Purity by HPLC after storage ([2]; 7 days, over all three conditions (ambient, 40° C./75% RH, 80° C.)): 99.0% | solubility at 24 h ([3]; fassif, Fasted State Simulated Small Intestinal Fluid, read-out: Aqueous Solubility FaSSIF): 0.063 mg/mL (≈ 0.164 mM) | solubility at 24 h ([3]; fessif, Fed State Simulated Small Intestinal Fluid, read-out: Aqueous Solubility FeSSIF): 0.086 mg/mL (≈ 0.224 mM) | solubility at 24 h ([3]; pH 1.2, simulated gastric fluid, pH 1.2, read-out: Aqueous Solubility pH 1.2): 0.029 mg/mL (≈ 0.0756 mM) | solubility at 24 h ([3]; pH 6.5, aqueous buffer, pH 6.5, read-out: Aqueous Solubility pH 6.5): 0.025 mg/mL (≈ 0.0652 mM) | solubility at 24 h ([3]; pH 7.4, aqueous buffer, pH 7.4, read-out: Aqueous Solubility pH 7.4): 0.026 mg/mL (≈ 0.0678 mM) | solubility ([4]; 40 °C, organic solvent or mixture, thermodynamic from solid, 1,4-Dioxane, solubility observed at 40° C., read-out: Solubility): > 200 mg/mL | solubility ([4]; 40 °C, organic solvent or mixture, thermodynamic from solid, Acetonitrile, solubility observed at 40° C., read-out: Solubility): > 200 mg/mL | solubility ([4]; 40 °C, organic solvent or mixture, thermodynamic from solid, Diisopropyl ether, solubility observed at 40° C., read-out: Solubility): > 2 mg/mL | solubility ([4]; 40 °C, organic solvent or mixture, thermodynamic from solid, Methyl isobutyl ketone, solubility observed at 40° C., read-out: Solubility): 160 mg/mL (≈ 417 mM) | Solubility in words ([4]; THF:Water (50%), separation into API-saturated THF layer and API-free aqueous layer observed): Sufficient solubility | solubility ([4]; aqueous with cosolvent or surfactant or cyclodextrin, thermodynamic from solid, Acetone: Water (60%), read-out: Solubility): < 2 mg/mL | solubility ([4]; aqueous with cosolvent or surfactant or cyclodextrin, thermodynamic from solid, Ethanol: Water (50%), read-out: Solubility): < 2 mg/mL | solubility ([4]; aqueous with cosolvent or surfactant or cyclodextrin, thermodynamic from solid, Methanol: Water (50%), read-out: Solubility): < 2 mg/mL | solubility ([4]; aqueous with cosolvent or surfactant or cyclodextrin, thermodynamic from solid, THF: Water (50%), read-out: Solubility): 100 mg/mL (≈ 261 mM) | solubility ([4]; organic solvent or mixture, thermodynamic from solid, 2-Propanol, read-out: Solubility): 9 mg/mL (≈ 23.5 mM) | solubility ([4]; organic solvent or mixture, thermodynamic from solid, Acetone: Water (5%), read-out: Solubility): > 200 mg/mL | solubility ([4]; organic solvent or mixture, thermodynamic from solid, Acetone: Water (20%), read-out: Solubility): > 200 mg/mL | solubility ([4]; organic solvent or mixture, thermodynamic from solid, Acetone, read-out: Solubility): > 200 mg/mL | solubility ([4]; organic solvent or mixture, thermodynamic from solid, Acetonitrile: Water (10%), read-out: Solubility): > 200 mg/mL | solubility ([4]; organic solvent or mixture, thermodynamic from solid, Dichloromethane, read-out: Solubility): 80 mg/mL (≈ 209 mM) | solubility ([4]; organic solvent or mixture, thermodynamic from solid, Dimethylformamide, read-out: Solubility): > 200 mg/mL | solubility ([4]; organic solvent or mixture, thermodynamic from solid, Dimethylsulfoxide, read-out: Solubility): 160 mg/mL (≈ 417 mM) | solubility ([4]; organic solvent or mixture, thermodynamic from solid, Ethanol, read-out: Solubility): 60 mg/mL (≈ 157 mM) | solubility ([4]; organic solvent or mixture, thermodynamic from solid, Ethyl acetate, read-out: Solubility): 160 mg/mL (≈ 417 mM) | solubility ([4]; organic solvent or mixture, thermodynamic from solid, Heptane, read-out: Solubility): < 2 mg/mL | solubility ([4]; organic solvent or mixture, thermodynamic from solid, Isopropyl acetate, read-out: Solubility): 90 mg/mL (≈ 235 mM) | solubility ([4]; organic solvent or mixture, thermodynamic from solid, Methanol, read-out: Solubility): 90 mg/mL (≈ 235 mM) | solubility ([4]; organic solvent or mixture, thermodynamic from solid, Methyl acetate, read-out: Solubility): > 200 mg/mL | solubility ([4]; organic solvent or mixture, thermodynamic from solid, Methylethyl ketone, read-out: Solubility): > 200 mg/mL | solubility ([4]; organic solvent or mixture, thermodynamic from solid, N-Methyl-2-pyrrolidone, read-out: Solubility): 130 mg/mL (≈ 339 mM) | solubility ([4]; organic solvent or mixture, thermodynamic from solid, Tetrahydrofuran, read-out: Solubility): > 200 mg/mL | solubility ([4]; organic solvent or mixture, thermodynamic from solid, Toluene, read-out: Solubility): > 2 mg/mL | solubility ([4]; organic solvent or mixture, thermodynamic from solid, in a number of solvents, read-out: Solubility (highly soluble)): > 100 mg/mL | solubility ([4]; organic solvent or mixture, thermodynamic from solid, tert-Butylmethyl ether, read-out: Solubility): 35 mg/mL (≈ 91.3 mM) | Solubility in words ([4]; water (hydrophobic behavior observed), diisopropyl ether, heptane and toluene): insoluble | solubility ([4]; water, thermodynamic from solid, Water, read-out: Solubility): < 2 mg/mL
SMILES: CS(=O)(=O)c1ccc(Oc2cc(F)cc(C#N)c2)c2c1[C@H](O)C(F)(F)C2 [Form A, (S)-3-((2,2-difluoro-1-hydroxy-7-(methylsulfonyl)-2,3-dihydro-1H-inden-4-yl)oxy)-5-fluorobenzonitrile]

Purity by HPLC after storage ([2]; 7 days at 80° C., drop from 99.7%): 99.3% | Crystallinity after storage ([2]; 7 days, over the three conditions (ambient, 40° C./75% RH, 80° C.)): maintained crystallinity | Thermodynamic stability of the form (conclusion of competitive slurries) ([1]; all solvents, ambient, 40° C. and 60° C.): the most thermodynamically form
SMILES: CS(=O)(=O)c1ccc(Oc2cc(F)cc(C#N)c2)c2c1[C@H](O)C(F)(F)C2 [Form B, (S)-3-((2,2-difluoro-1-hydroxy-7-(methylsulfonyl)-2,3-dihydro-1H-inden-4-yl)oxy)-5-fluorobenzonitrile]
